This note sets out measurements from patent publication US20250382619A1, “CANCER THERAPY WITH TGF-BETA-2 AND IRINOTECAN AGENTS” (GMP BIOTECHNOLOGY LIMITED, priority 2023, published 2025).

Several values for one entry are separate records, joined by “and”; a condition that tells them apart may be missing. Identical values can stand only once. In the oligonucleotide strings, read from the 5' end, every base follows the letter of its sugar. An asterisk marks phosphorothioate; unmarked linkages are phosphodiester. Other units and linkages are bracketed, terminal groups are in braces. A string of capitals states the bases alone. d = 2'-deoxy (DNA) A value given as a limit tells only on which side of the number the result lay.

For series [1], the system named is pancreatic cancer. Put plainly: Clinical study of overall survival, pancreatic cancer patients treated with irinotecan, by TGF-β2 expression (Example 5, two cohorts). Format: in vivo, human. Particulars: for Synergy in combination with reduced TGF-β2 expression: overall survival, pancreatic cancer patients; for Improvement in overall survival (OS) with reduced TGF-β2 expression in patients treated with the agent: pancreatic cancer patients selected by treatment; for Median Months Overall (95% CI): irinotecan-treated patients. From the text:
The study of FIG. 5 used Quartiles of TGFB2 from mRNA expression z-scores relative to all samples (log RNA Seq V2 RSEM).

The subject of series [2] is pancreatic cancer. In words: Clinical study of overall survival, pancreatic cancer patients treated with irinotecan, by TGF-β2 expression quartiles (Example 6). It is filed as in vivo, human. The note with it: TGFB2 quartile (D) 0.61-2.64, high TGF-β2 expression. The procedure: Kaplan-Meier Plotter was used to calculate patient survival to determine the connection between improved overall survival in pancreatic cancer and reduced TGF-β2 expression when patients were also treated with irinotecan. The study of FIG. 6 used Quartiles of TGFB2 from mRNA expression z-scores relative to all samples (log RNA Seq V2 RSEM).

For the compound `Nc1nc2c(c(=O)[nH]1)N(C=O)C(CNc1ccc(C(=O)N[C@@H](CCC(=O)O)C(=O)O)cc1)CN2` (some centres unmarked) [leucovorin], in series [1], the “Synergy in combination with reduced TGF-β2 expression” value is “none of oxaliplatin, leucovorin, and fluorouracil showed significant synergy”; the “Improvement in overall survival (OS) with reduced TGF-β2 expression in patients treated with the agent” value was “not observed”.

On to `O=C1[O][Pt]2([NH][C@@H]3CCCC[C@H]3[NH]2)[O]C1=O` [oxaliplatin], for which the “Improvement in overall survival (OS) with reduced TGF-β2 expression in patients treated with the agent” value in series [1] is listed as “not observed”.

For `O=c1[nH]cc(F)c(=O)[nH]1` [fluorouracil], in series [1], the “Synergy in combination with reduced TGF-β2 expression” value was “none of oxaliplatin, leucovorin, and fluorouracil showed significant synergy”; the “Improvement in overall survival (OS) with reduced TGF-β2 expression in patients treated with the agent” value is “not observed”.

“Trabedersen: synthetic 18-mer phosphorothioate oligodeoxynucleotide complementary to human TGF-β2 mRNA, CGGCATGTCT ATTTTGTA (antisense dC*dG*dG*dC*dA*dT*dG*dT*dC*dT*dA*dT*dT*dT*dT*dG*dT*dA)”: the pH of solution was 6-8.

As for `CCc1c2c(nc3ccc(OC(=O)N4CCC(N5CCCCC5)CC4)cc13)-c1cc3c(c(=O)n1C2)COC(=O)[C@]3(O)CC` [irinotecan], the “Median Months Overall (95% CI)” value in series [1] (TGFB2 cohort (A) −1.75-0.17, low TGF-β2 expression) is >>34 months; in series [1] (TGFB2 cohort (B) 0.33-2.64, high TGF-β2 expression), 23 months and 23.08 (8.22-NA) months; in series [2] it was 8 months and 8.22 (6.02-NA) months. Further, the “Improvement in overall survival (OS) with reduced TGF-β2 expression in patients treated with the agent” value in series [1] is recorded as “showed improvement in overall survival”.

`Nc1ccn([C@@H]2O[C@H](CO)[C@@H](O)C2(F)F)c(=O)n1` [gemcitabine]: the “Improvement in overall survival (OS) with reduced TGF-β2 expression in patients treated with the agent” value in series [1] is listed as “not observed”.
